# In US12723063B2, “GIPR-agonist compounds” (Eli Lilly and Company, priority 2019, dated 2026):
# *1 amine or outer side, *2 acyl side, *3 side chain or, on linkers, in order; H or OH if unused. Where a SMILES comes first, the peptide text is derived from it. Side-chain parts run from the residue outwards. [ ]: non-standard residue; d: D form. The star is where a group is joined. C20 diacid = O=C(O)CCCCCCCCCCCCCCCCCCC(=O)*; C18 diacid = O=C(O)CCCCCCCCCCCCCCCCC(=O)*; αMePhe(2-F) = C[C@](N)(Cc1ccccc1F)C(=O)O; γGlu = O=C(O)[C@H](CCC(=O)[*:2])N[*:1]; αMeY = C[C@](N)(Cc1ccc(O)cc1)C(=O)O; 4Pal = N[C@@H](Cc1ccncc1)C(=O)O; αMeL = CC(C)C[C@](C)(N)C(=O)O; AEEA = NCCOCCOCC(=O)O; Aib = CC(C)(N)C(=O)O
# Columns and labels:
# [1] = molecular target: T1, human glucagon receptor (GcgR) (Homo sapiens, UniProt P47871); test: cAMP functional assay (HTRF) in HEK293 cells in presence of 0.1% casein; assay type: cell-based; conditions: HEK293 cells expressing human GcgR, geometric mean, read-out: hGcgR cAMP Rel EC50 nM (SEM, n)
# T1 construct: expressed in transfected cells; host or cells: HEK293
# T1 sequence (P47871 26-477): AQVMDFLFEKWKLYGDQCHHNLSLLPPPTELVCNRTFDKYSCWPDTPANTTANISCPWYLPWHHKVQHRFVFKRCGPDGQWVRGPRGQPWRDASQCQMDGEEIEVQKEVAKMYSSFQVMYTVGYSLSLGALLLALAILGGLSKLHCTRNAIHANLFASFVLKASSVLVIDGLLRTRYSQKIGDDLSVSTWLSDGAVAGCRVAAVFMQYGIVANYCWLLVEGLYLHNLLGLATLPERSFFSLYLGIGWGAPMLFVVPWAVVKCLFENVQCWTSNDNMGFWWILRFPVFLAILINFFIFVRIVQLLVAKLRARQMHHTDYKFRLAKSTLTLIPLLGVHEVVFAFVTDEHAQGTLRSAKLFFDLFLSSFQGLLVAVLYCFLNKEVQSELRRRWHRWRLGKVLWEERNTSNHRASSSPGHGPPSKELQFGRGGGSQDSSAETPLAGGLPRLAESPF
# [2] = molecular target: T2, human GLP-1 receptor (GLP-1R) (Homo sapiens, UniProt P43220); test: as above; assay type: cell-based; conditions: HEK293 cells expressing human GLP-1R, geometric mean, read-out: hGLP1R cAMP Rel EC50 nM (SEM, n)
# T2 construct: expressed in transfected cells; host or cells: HEK293
# T2 sequence (P43220 24-463): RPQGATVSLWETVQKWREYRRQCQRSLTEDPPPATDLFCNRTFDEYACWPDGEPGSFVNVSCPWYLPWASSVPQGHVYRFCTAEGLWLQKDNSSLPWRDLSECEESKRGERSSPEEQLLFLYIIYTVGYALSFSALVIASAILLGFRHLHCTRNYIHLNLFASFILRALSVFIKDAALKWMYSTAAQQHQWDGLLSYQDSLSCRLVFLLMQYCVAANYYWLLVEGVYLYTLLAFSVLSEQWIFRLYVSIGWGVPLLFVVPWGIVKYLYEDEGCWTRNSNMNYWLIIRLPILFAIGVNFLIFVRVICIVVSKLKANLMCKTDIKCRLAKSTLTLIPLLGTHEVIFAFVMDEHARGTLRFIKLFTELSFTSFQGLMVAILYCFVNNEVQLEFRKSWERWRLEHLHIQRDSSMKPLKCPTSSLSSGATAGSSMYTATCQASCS
# human GcgR = molecular target: T3, human GcgR (Homo sapiens, UniProt P47871); test: [125I]-Glucagon binding, SPA with WGA beads, 0.1% bacitracin; conditions: geometric mean, read-out: hGcgR Ki
# T3 construct: expressed in transfected cells; crude membranes
# T3 sequence (P47871 26-477): as the sequence (P47871 26-477) above
# Outline: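 SPA competition binding with WGA beads on crude membranes from HEK293 cells stably expressing hGcgR. Buffer: 25 mM HEPES pH 7.4, 2.5 mM CaCl2, 1 mM MgCl2, 0.1% bacitracin, 0.003% Tween-20; 10-point 3-fold dilutions, NSB with 1 μM Gcg.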
SMILES,EC50 [1],EC50 [2],Ki (human GcgR)
CC[C@H](C)[C@H](NC(=O)[C@H](Cc1ccccc1)NC(=O)[C@@H](NC(=O)CNC(=O)[C@H](CCC(=O)O)NC(=O)C(C)(C)NC(=O)[C@@H](N)Cc1ccc(O)cc1)[C@@H](C)O)C(=O)N[C@@H](CO)C(=O)N[C@@H](CC(=O)O)C(=O)N[C@@H](Cc1ccc(O)cc1)C(=O)N[C@@H](CO)C(=O)N[C@H](C(=O)N[C@@](C)(CC(C)C)C(=O)N[C@@H](CC(C)C)C(=O)N[C@@H](CC(=O)O)C(=O)N[C@@H](CCCCN)C(=O)N[C@@H](CCCCNC(=O)COCCOCCNC(=O)COCCOCCNC(=O)CC[C@H](NC(=O)CCCCCCCCCCCCCCCCCCC(=O)O)C(=O)O)C(=O)N[C@@H](Cc1c[nH]cn1)C(=O)N[C@@H](CCC(N)=O)C(=O)NC(C)(C)C(=O)N[C@@H](CC(=O)O)C(=O)N[C@@H](Cc1ccccc1)C(=O)N[C@H](C(=O)N[C@@H](CCC(=O)O)C(=O)N[C@@](C)(Cc1ccc(O)cc1)C(=O)N[C@@H](CC(C)C)C(=O)N[C@@H](CC(C)C)C(=O)N[C@@H](CCC(=O)O)C(=O)NCC(=O)NCC(=O)N1CCC[C@H]1C(=O)N[C@@H](CO)C(=O)N[C@@H](CO)C(=O)NCC(=O)N[C@@H](C)C(=O)N1CCC[C@H]1C(=O)N1CCC[C@H]1C(=O)N1CCC[C@H]1C(=O)N[C@@H](CO)C(N)=O)C(C)C)[C@@H](C)CC [Example 91] (H-Y[Aib]EGTFISDYSI[αMeL]LDKK([AEEA-AEEA-γGlu-C20 diacid])HQ[Aib]DFVE[αMeY]LLEGGPSSGAPPPS-NH2),289 nM,530 nM,54.4 nM
CC[C@H](C)[C@H](NC(=O)[C@H](Cc1ccccc1)NC(=O)[C@@H](NC(=O)CNC(=O)[C@H](CCC(=O)O)NC(=O)C(C)(C)NC(=O)[C@@H](N)Cc1ccc(O)cc1)[C@@H](C)O)C(=O)N[C@@H](CO)C(=O)N[C@@H](CC(=O)O)C(=O)N[C@@H](Cc1ccc(O)cc1)C(=O)N[C@@H](CO)C(=O)N[C@H](C(=O)N[C@@](C)(CC(C)C)C(=O)N[C@@H](CC(C)C)C(=O)N[C@@H](CC(=O)O)C(=O)N[C@@H](CCC(=O)O)C(=O)N[C@@H](CCCCNC(=O)COCCOCCNC(=O)COCCOCCNC(=O)CC[C@H](NC(=O)CCCCCCCCCCCCCCCCCCC(=O)O)C(=O)O)C(=O)N[C@@H](Cc1c[nH]cn1)C(=O)N[C@@H](CCC(N)=O)C(=O)NC(C)(C)C(=O)N[C@@H](CC(=O)O)C(=O)N[C@@H](Cc1ccccc1)C(=O)N[C@H](C(=O)N[C@@H](CCC(=O)O)C(=O)N[C@@H](Cc1ccncc1)C(=O)N[C@@H](CC(C)C)C(=O)N[C@@H](CC(C)C)C(=O)N[C@@H](C)C(=O)N[C@@H](CCC(N)=O)C(=O)NCC(=O)N1CCC[C@H]1C(=O)N[C@@H](CO)C(=O)N[C@@H](CO)C(=O)NCC(=O)N[C@@H](C)C(=O)N1CCC[C@H]1C(=O)N1CCC[C@H]1C(=O)N1CCC[C@H]1C(=O)N[C@@H](CO)C(N)=O)C(C)C)[C@@H](C)CC [Example 84] (H-Y[Aib]EGTFISDYSI[αMeL]LDEK([AEEA-AEEA-γGlu-C20 diacid])HQ[Aib]DFVE[4Pal]LLAQGPSSGAPPPS-NH2),> 5000 nM,> 5000 nM,> 958 nM
CC[C@H](C)[C@H](NC(=O)[C@H](Cc1ccccc1)NC(=O)[C@@H](NC(=O)CNC(=O)[C@H](CCC(=O)O)NC(=O)C(C)(C)NC(=O)[C@@H](N)Cc1ccc(O)cc1)[C@@H](C)O)C(=O)N[C@@H](CO)C(=O)N[C@@H](CC(=O)O)C(=O)N[C@@H](Cc1ccc(O)cc1)C(=O)N[C@@H](CO)C(=O)N[C@H](C(=O)N[C@@](C)(CC(C)C)C(=O)N[C@@H](CC(C)C)C(=O)N[C@@H](CC(=O)O)C(=O)N[C@@H](CCC(=O)O)C(=O)N[C@@H](CCCCNC(=O)COCCOCCNC(=O)COCCOCCNC(=O)CC[C@H](NC(=O)CCCCCCCCCCCCCCCCCCC(=O)O)C(=O)O)C(=O)N[C@@H](Cc1c[nH]cn1)C(=O)N[C@@H](CCC(N)=O)C(=O)NC(C)(C)C(=O)N[C@@H](CC(=O)O)C(=O)N[C@@H](Cc1ccccc1)C(=O)N[C@H](C(=O)N[C@@H](CCC(=O)O)C(=O)N[C@@H](Cc1ccncc1)C(=O)N[C@@H](CC(C)C)C(=O)N[C@@H](CC(C)C)C(=O)N[C@@H](C)C(=O)N[C@H](C(=O)NCC(=O)N1CCC[C@H]1C(=O)N[C@@H](CO)C(=O)N[C@@H](CO)C(=O)NCC(=O)N[C@@H](C)C(=O)N1CCC[C@H]1C(=O)N1CCC[C@H]1C(=O)N1CCC[C@H]1C(=O)N[C@@H](CO)C(N)=O)[C@@H](C)O)C(C)C)[C@@H](C)CC [Example 83] (H-Y[Aib]EGTFISDYSI[αMeL]LDEK([AEEA-AEEA-γGlu-C20 diacid])HQ[Aib]DFVE[4Pal]LLATGPSSGAPPPS-NH2),> 5000 nM,> 5000 nM,> 958 nM
CC[C@H](C)[C@H](NC(=O)[C@H](CO)NC(=O)[C@H](Cc1ccc(O)cc1)NC(=O)[C@H](CC(=O)O)NC(=O)[C@H](CO)NC(=O)[C@@H](NC(=O)[C@H](Cc1ccccc1)NC(=O)[C@@H](NC(=O)CNC(=O)[C@H](CCC(=O)O)NC(=O)[C@@H](C)NC(=O)[C@@H](N)Cc1ccc(O)cc1)[C@@H](C)O)[C@@H](C)CC)C(=O)N[C@@H](CC(C)C)C(=O)N[C@@H](CC(C)C)C(=O)N[C@@H](CC(=O)O)C(=O)N[C@@H](CCCCN)C(=O)N[C@@H](CCCCNC(=O)COCCOCCNC(=O)COCCOCCNC(=O)CC[C@H](NC(=O)CCCCCCCCCCCCCCCCC(=O)O)C(=O)O)C(=O)N[C@@H](C)C(=O)N[C@@H](CCC(N)=O)C(=O)NC(C)(C)C(=O)N[C@@H](CC(=O)O)C(=O)N[C@@H](Cc1ccccc1)C(=O)N[C@H](C(=O)N[C@@H](CC(N)=O)C(=O)N[C@@H](Cc1ccncc1)C(=O)N[C@@H](CC(C)C)C(=O)N[C@@H](CC(C)C)C(=O)N[C@@H](C)C(=O)N[C@@H](CCC(N)=O)C(=O)NCC(=O)N1CCC[C@H]1C(=O)N[C@@H](CO)C(=O)N[C@@H](CO)C(=O)NCC(=O)N[C@@H](C)C(=O)N1CCC[C@H]1C(=O)N1CCC[C@H]1C(=O)N1CCC[C@H]1C(=O)N[C@@H](CO)C(N)=O)C(C)C [Example 18] (H-Y[dA]EGTFISDYSILLDKK([AEEA-AEEA-γGlu-C18 diacid])AQ[Aib]DFVN[4Pal]LLAQGPSSGAPPPS-NH2),> 5000 nM,> 5000 nM,463 nM
CC[C@H](C)[C@H](NC(=O)[C@H](CO)NC(=O)[C@H](Cc1ccc(O)cc1)NC(=O)[C@H](CC(=O)O)NC(=O)[C@H](CO)NC(=O)[C@@H](NC(=O)[C@](C)(Cc1ccccc1F)NC(=O)[C@@H](NC(=O)CNC(=O)[C@H](CCC(=O)O)NC(=O)C(C)(C)NC(=O)[C@@H](N)Cc1ccc(O)cc1)[C@@H](C)O)[C@@H](C)CC)C(=O)N[C@@H](C)C(=O)N[C@@H](CC(C)C)C(=O)N[C@@H](CC(=O)O)C(=O)N[C@@H](CCCCN)C(=O)N[C@H](C(=O)N[C@@H](Cc1c[nH]cn1)C(=O)N[C@@H](CCC(N)=O)C(=O)NC(C)(C)C(=O)N[C@@H](CC(=O)O)C(=O)N[C@@H](Cc1ccccc1)C(=O)N[C@H](C(=O)N[C@@H](CCC(=O)O)C(=O)N[C@@H](Cc1ccncc1)C(=O)N[C@@H](CCCCNC(=O)COCCOCCNC(=O)COCCOCCNC(=O)CC[C@H](NC(=O)CCCCCCCCCCCCCCCCCCC(=O)O)C(=O)O)C(=O)N[C@@H](CC(C)C)C(=O)N[C@@H](CCC(=O)O)C(=O)N[C@@H](C)C(=O)NCC(=O)N1CCC[C@H]1C(=O)N[C@@H](CO)C(=O)N[C@@H](CO)C(=O)NCC(=O)N[C@@H](C)C(=O)N1CCC[C@H]1C(=O)N1CCC[C@H]1C(=O)N1CCC[C@H]1C(=O)N[C@@H](CO)C(N)=O)C(C)C)[C@@H](C)CC [Example 113] (H-Y[Aib]EGT[αMePhe(2-F)]ISDYSIALDKIHQ[Aib]DFVE[4Pal]K([AEEA-AEEA-γGlu-C20 diacid])LEAGPSSGAPPPS-NH2),> 5000 nM,> 5000 nM,821 nM
CC[C@H](C)[C@H](NC(=O)[C@H](CO)NC(=O)[C@H](Cc1ccc(O)cc1)NC(=O)[C@H](CC(=O)O)NC(=O)[C@H](CO)NC(=O)[C@@H](NC(=O)[C@](C)(Cc1ccccc1F)NC(=O)[C@@H](NC(=O)CNC(=O)[C@H](CCC(=O)O)NC(=O)C(C)(C)NC(=O)[C@@H](N)Cc1ccc(O)cc1)[C@@H](C)O)[C@@H](C)CC)C(=O)N[C@@H](C)C(=O)N[C@@H](CC(C)C)C(=O)N[C@@H](CC(=O)O)C(=O)N[C@@H](CCCCN)C(=O)N[C@@H](CCCCNC(=O)COCCOCCNC(=O)COCCOCCNC(=O)CC[C@H](NC(=O)CCCCCCCCCCCCCCCCCCC(=O)O)C(=O)O)C(=O)N[C@@H](Cc1c[nH]cn1)C(=O)N[C@@H](CCC(N)=O)C(=O)NC(C)(C)C(=O)N[C@@H](CCC(=O)O)C(=O)N[C@@H](Cc1ccccc1)C(=O)N[C@H](C(=O)N[C@@H](CC(N)=O)C(=O)N[C@@H](Cc1c[nH]c2ccccc12)C(=O)N[C@@H](CC(C)C)C(=O)N[C@@H](CC(C)C)C(=O)N[C@@H](C)C(=O)NCC(=O)NCC(=O)N1CCC[C@H]1C(=O)N[C@@H](CO)C(=O)N[C@@H](CO)C(=O)NCC(=O)N[C@@H](C)C(=O)N1CCC[C@H]1C(=O)N1CCC[C@H]1C(=O)N1CCC[C@H]1C(=O)N[C@@H](CO)C(N)=O)C(C)C [Example 26] (H-Y[Aib]EGT[αMePhe(2-F)]ISDYSIALDKK([AEEA-AEEA-γGlu-C20 diacid])HQ[Aib]EFVNWLLAGGPSSGAPPPS-NH2),> 5000 nM,5.69 nM,74.1 nM
